# Measured values from US8058309B2, “Protein kinase modulators and therapeutic uses thereof” (Novotyr Therapeutics Ltd., priority 2006, dated 2011).
# “Also recorded” adds a separate entry of the source.
# Assays:
# T24P = test: Proliferation assay T24P; format: cell-based; details: Bladder, 72 hours
# Experimental: (§1) Various cancer cell lines (listed in table 1) were plated at a density of 1000-5000 cells/well in 96-well plates in 90111 growth medium containing 10% FCS, 100 units/ml penicillin and 100 μg/ml streptomycin. Inhibitors were added a day later in 10 μl of 1% DMSO in DDW to obtain final concentrations of 0, 0.1, 0.3, 1, 3, and 10 μM. The final concentration of DMSO (0.1% DMSO) was kept constant in all samples. Medium with inhibitors was refreshed a day and two days later. Following exposure of the cells to the inhibitors for 72 hours at 37° C., the cells were fixed in 0.5% gluteraldehyde in medium for 10 min, washed three times with DDW, once with 0.1M sodium borate buffer pH 8.5 and stained with 1% methylene blue dissolved in 0.1M borate buffer solution for 60 min. Excess dye was washed out and cell-bound dye was eluted with 200 μl/well of 0.1 M HCl. The optical density value was read at 620 nm in ELISA plate reader. The data was analyzed in Microsoft Excel, using the vehicle control as 100% proliferation. The assays were performed in triplicates. The values in table 1 represent IC50 values derived from the dose-dependent growth curves obtained.
# (§2) Compounds 6, 7, 8, and 9 were tested for their inhibitory potential in cell proliferation assay. In this assay cells were exposed to increasing concentrations of the molecules (at 0.1% DMSO in all wells) a day after seeding. Medium and inhibitors were refreshed every day, and following three days of treatment, cells were fixed and stained with methylene-Blue. IC50 values were determined from the curves of the optical density against compound concentration. The assay was performed in triplicates.
# IGF1R = target: T1, IGF1R (Homo sapiens, UniProt P08069); test: Inhibition of IGF1-induced signaling in intact MCF7 cells (western blot); format: cell-based; details: for Inhibition of IGF1R autophosphorylation and IGF1-induced signaling (IRS1 pTyr, Akt/PKB, MAPK/ERK): 4 h exposure, IGF1 stimulation
# T1 construct: made in house
# Experimental: (§3) Tyrosine autophosphorylation of the β-subunit of IGF1R as well as downstream signaling induced by IGF1R were assayed in breast cancer MCF7 cells. Tyrosine autophosphorylation of the EGFR and the EGFR signaling was assayed in prostate cancer PC3 cells. Tyrosine autophosphorylation of the PDGFR and its signaling was assayed in fibroblasts overexpres sing PDGFR. Tyro sine autophosphorylation of the IR and its signaling was assayed in fibroblasts overexpressing IR. Cells were seeded in 6-well plates (MCF7-250,000 cells/well, PC3-150,000 cells/well, fibroblasts-140,000 cells/well) and 24 hours later medium was replaced by serum-free medium (DMEM supplemented with 100 units/ml penicillin and 100 μg/ml streptomycin). Following 20 hours of serum-starvation medium was replaced with medium containing various concentrations of the inhibitors in 0.1% DMSO for additional 4 hours. Cells were then stimulated for 5 min with 50 ng/ml IGF-1 (MCF7 cells), 20 ng/ml EGF (PC3 cells), 50 ng/ml PDGF (fibroblasts overexpressing PDGFR) or 100 nM insulin (fibroblasts overexpressing IR), washed twice with PBS and lysed by boiling sample buffer (10% glycerol, 50 mM Tris-HCl, pH 6.8, 3% SDS, and 5%, β-mercaptoethanol). Equal amounts of protein per lane were separated by 8% SDS-PAGE and transferred to a nitrocellulose membrane (Sartorius AG). Phosphorylated proteins were immunoblotted with anti-phospho-IGF1R (phosphor-IGF1R), anti-phosphotyrosine-IRS1 (phospho-IRS1), anti-phospho(T308)Akt (phospho-PKB), anti-phospho-Erk (phospho-ERK), anti-phosphotyrosine 4G10&PY20 (pY-EGFR or pY-PDGFR), anti-phospho-Ser^636/639-IRS1 (pS^636/639-IRS1) and anti-phospho-STAT3 (phospho-STAT3) antibodies. Detection was performed with horseradish peroxidase-conjugated secondary antibody using the ECL system. Blots were then stripped of antibodies, blocked with TBST with 5% low fat milk and re-probed with antibodies detecting both the phosphorylated and the non-phosphorylated corresponding proteins e.g. IGF1Rβ, IRS1, PKB, ERK, IRβ, PDGFR and Stat3.
# B16 tumors = test: Melanoma B16 tumor growth; format: in vivo, nude mice; details: IP, 20 mg/kg, 1/day
# Experimental: Human hormone-refractory prostate cancer PC3 cells (ATCC, 1.5×10^6 cells per mouse) were injected subcutaneously into the right leg of Nude:Hsd mice (purchased from Harlan). Ten days later, when palpable tumors had developed, mice were divided into 3 groups with similar average tumor size. […] The mice treated with compound 7 group were daily injected with compound 7 dissolved in the below described vehicle, and the vehicle-treated group (veh) was daily injected by the vehicle alone. Vehicle included 4.4% DMSO, 1.2% Ethanol and 50% PEG400 in DDW; Groups were composed of 3 mice per group. Dose administered IP was 50 mg/Kg (4 ml/Kg) once a day for one month. The length (l) and the width (w) of the tumors were measured every day and the volumes of the tumors were calculated as follows: v=1w^2/2. Graphs present average volumes of the tumors versus time in days. The procedure was followed for the other described in-vivo studies with the following modifications:
# The mouse B16 melanoma cells (1.5×10^6 cells per mouse) were injected subcutaneously into the right leg of male Nude:Hsd mice (purchased from Harlan). Inhibitors were injected IP daily at a dose of 20 mg/kg dissolved in 4.4% % DMSO, 1.2% EtOH, 33% PEG-400 in DDW at volume of 4 ml/kg.
# EGFR = target: T2, EGFR (Homo sapiens, UniProt P00533); test: EGFR activation and EGF-induced signaling in PC3 cells; format: cell-based; details: EGF stimulation
# T2 construct: endogenous in cells; host or cells: PC3
# Experimental: as §3, with “Phosphorylated proteins were immunoblotted with anti-phospho-IGF1R (phosphor-IGF1R), anti-phosphotyrosine-IRS1 (phospho-IRS1), anti-phospho(T308)Akt (phospho-PKB), anti-phospho-Erk (phospho-ERK), anti-phosphotyrosine 4G10&PY20 (pY-EGFR or pY-PDGFR), anti-phospho-Ser^636/639-IRS1 (pS^636/639-IRS1) and anti-phospho-STAT3 (phospho-STAT3) antibodies. Detection was performed with horseradish peroxidase-conjugated secondary antibody using the ECL system. Blots were then stripped of antibodies, blocked with TBST with 5% low fat milk and re-probed with antibodies detecting both the phosphorylated and the non-phosphorylated corresponding proteins e.g. IGF1Rβ, IRS1, PKB, ERK, IRβ, PDGFR and Stat3.” left out
# SKOV-3 = test: Proliferation assay SKOV-3; format: cell-based; details: Homo sapiens, SK-OV-3, Ovarian, 72 hours
# Experimental: as §1, §2
# primary keratinocytes = test: In-vitro inhibition of keratinocyte growth; format: cell-based; details: growth factor enriched medium
# Experimental: Primary keratinocytes were seeded in 96-well plates in growth factor enriched medium. After 48 hours medium was refreshed and compound 7 was added at the indicated concentrations (0 is 0.1% DMSO which was kept constant in all wells). Every 24 hours medium and compound 7 were refreshed, and 5 days following seeding cells were fixed with 0.5% gluteraldehide for 10 min, stained with Methylene-Blue. Access stain was washed away and the bound stain was extracted by 0.1N HCl. Absorbance at 620 nm wavelength was read in ELISA reader.
# IRS1 = IRS1 Ser-phosphorylation in YUMAC cells; format: cell-based, human; details: metastatic melanoma YUMAC cells
# Experimental: In addition, lysates were prepared from cells exposed to inhibitors at various concentrations for 24 hours in the presence or the absence of FCS without stimulation. Lysate preparation and western blot were the same as described above. Apoptosis was detected by immunoblotting with rabbit anti-PARP antibodies.
# PDGFR = PDGFR activation and signaling in fibroblasts overexpressing PDGFR; format: cell-based; details: fibroblasts over-expressing PDGFR, PDGF stimulation
# Experimental: as §3, with “Phosphorylated proteins were immunoblotted with anti-phospho-IGF1R (phosphor-IGF1R), anti-phosphotyrosine-IRS1 (phospho-IRS1), anti-phospho(T308)Akt (phospho-PKB), anti-phospho-Erk (phospho-ERK), anti-phosphotyrosine 4G10&PY20 (pY-EGFR or pY-PDGFR), anti-phospho-Ser^636/639-IRS1 (pS^636/639-IRS1) and anti-phospho-STAT3 (phospho-STAT3) antibodies. Detection was performed with horseradish peroxidase-conjugated secondary antibody using the ECL system. Blots were then stripped of antibodies, blocked with TBST with 5% low fat milk and re-probed with antibodies detecting both the phosphorylated and the non-phosphorylated corresponding proteins e.g. IGF1Rβ, IRS1, PKB, ERK, IRβ, PDGFR and Stat3.” left out
# T1 sequence (P08069 31-1367, species assumed): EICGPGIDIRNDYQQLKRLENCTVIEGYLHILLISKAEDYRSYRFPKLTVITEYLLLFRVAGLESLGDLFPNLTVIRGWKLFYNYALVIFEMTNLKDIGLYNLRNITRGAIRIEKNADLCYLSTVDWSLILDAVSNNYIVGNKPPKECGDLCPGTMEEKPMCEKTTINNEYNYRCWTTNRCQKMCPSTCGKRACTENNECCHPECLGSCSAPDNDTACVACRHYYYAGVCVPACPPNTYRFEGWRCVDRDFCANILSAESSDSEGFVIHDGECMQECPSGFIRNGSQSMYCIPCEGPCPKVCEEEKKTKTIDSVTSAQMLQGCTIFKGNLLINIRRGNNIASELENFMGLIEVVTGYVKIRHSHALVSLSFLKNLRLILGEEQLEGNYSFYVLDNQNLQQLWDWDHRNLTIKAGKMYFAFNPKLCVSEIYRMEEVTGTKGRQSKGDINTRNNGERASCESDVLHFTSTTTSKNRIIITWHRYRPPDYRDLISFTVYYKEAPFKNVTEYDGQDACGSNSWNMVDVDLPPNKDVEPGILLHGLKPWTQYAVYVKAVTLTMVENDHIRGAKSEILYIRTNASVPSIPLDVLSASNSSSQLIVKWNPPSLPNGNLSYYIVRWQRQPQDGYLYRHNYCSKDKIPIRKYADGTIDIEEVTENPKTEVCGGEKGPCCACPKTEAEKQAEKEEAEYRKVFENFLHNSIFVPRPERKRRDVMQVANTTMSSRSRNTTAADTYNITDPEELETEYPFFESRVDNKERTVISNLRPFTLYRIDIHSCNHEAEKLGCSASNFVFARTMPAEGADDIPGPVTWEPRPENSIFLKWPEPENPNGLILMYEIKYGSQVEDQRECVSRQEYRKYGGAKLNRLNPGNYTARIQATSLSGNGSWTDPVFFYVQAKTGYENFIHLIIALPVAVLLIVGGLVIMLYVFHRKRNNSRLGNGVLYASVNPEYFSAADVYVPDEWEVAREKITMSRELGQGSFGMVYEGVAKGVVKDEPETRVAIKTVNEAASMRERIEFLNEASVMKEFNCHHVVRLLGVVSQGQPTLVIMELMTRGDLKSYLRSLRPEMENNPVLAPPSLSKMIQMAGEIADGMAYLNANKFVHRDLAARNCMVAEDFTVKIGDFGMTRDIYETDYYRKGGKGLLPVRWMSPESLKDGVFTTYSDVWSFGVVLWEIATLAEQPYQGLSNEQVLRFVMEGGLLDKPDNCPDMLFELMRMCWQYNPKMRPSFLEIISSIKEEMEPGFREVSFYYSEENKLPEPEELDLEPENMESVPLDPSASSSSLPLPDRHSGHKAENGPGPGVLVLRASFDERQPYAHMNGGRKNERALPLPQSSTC
# T2 sequence (P00533 25-1210): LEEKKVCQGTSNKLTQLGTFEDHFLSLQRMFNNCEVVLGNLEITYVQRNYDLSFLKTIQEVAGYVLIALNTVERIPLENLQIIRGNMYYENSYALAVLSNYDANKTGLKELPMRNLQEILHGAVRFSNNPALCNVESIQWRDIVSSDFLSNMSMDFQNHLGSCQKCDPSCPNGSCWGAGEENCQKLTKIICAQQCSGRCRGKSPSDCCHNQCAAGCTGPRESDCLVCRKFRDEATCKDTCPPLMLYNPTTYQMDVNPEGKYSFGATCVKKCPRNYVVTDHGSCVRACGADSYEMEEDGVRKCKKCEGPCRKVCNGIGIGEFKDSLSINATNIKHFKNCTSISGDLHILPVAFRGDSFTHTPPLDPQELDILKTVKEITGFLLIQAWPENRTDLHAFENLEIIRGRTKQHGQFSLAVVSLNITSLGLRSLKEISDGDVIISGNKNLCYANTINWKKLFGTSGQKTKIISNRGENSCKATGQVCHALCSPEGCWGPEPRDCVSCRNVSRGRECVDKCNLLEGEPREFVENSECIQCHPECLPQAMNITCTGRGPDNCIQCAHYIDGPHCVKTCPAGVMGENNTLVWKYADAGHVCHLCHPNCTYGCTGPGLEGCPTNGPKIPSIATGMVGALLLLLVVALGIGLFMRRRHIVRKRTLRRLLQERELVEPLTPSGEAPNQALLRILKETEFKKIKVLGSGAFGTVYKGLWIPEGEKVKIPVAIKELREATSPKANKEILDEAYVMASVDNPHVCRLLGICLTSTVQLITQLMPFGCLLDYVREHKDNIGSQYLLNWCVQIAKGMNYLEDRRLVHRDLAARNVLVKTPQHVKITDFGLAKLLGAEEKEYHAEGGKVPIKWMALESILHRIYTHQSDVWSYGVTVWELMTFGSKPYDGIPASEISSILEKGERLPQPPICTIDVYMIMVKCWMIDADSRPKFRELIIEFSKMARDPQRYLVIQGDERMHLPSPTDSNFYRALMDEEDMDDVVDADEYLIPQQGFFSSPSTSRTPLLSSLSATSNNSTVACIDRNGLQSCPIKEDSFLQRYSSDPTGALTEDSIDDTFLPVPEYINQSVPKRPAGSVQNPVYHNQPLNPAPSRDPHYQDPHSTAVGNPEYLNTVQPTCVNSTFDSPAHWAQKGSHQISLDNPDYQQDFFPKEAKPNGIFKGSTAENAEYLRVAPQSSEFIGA
SMILES,IC50 (T24P) [nM],"Inhibition of IGF1R autophosphorylation and IGF1-induced signaling (IRS1 pTyr, Akt/PKB, MAPK/ERK) (IGF1R)",Growth inhibition of melanoma B16 tumors (B16 tumors),Inhibition of EGFR and EGF-induced signaling in intact cells (EGFR),IC50 (SKOV-3) [nM],IC50 (primary keratinocytes) [nM],IC50 (IGF1R; read-out: IC50 in inhibition of the Akt/PKB pathway downstream IGF1R) [nM],IRS1 Ser-phosphorylation (IRS1),Inhibition of PDGFR in intact cells (PDGFR)
N#C/C(=C\c1cc(O)c(O)c(Br)c1)C(=S)NCc1cc(O)c(O)c(Br)c1 [Compound 6],> 10000,inhibited the autophosphorylation of IGF1R,significant inhibitory effect,inhibited also EGFR,> 10000,–,–,–,–
N#C/C(=C\c1cc(O)c(O)c(Br)c1)C(=S)NCc1cc(O)c(O)c(O)c1 [Compound 7],1200,dramatically inhibited,significant inhibitory effect,inhibits,5300,2300,1000 to 2000,detected,inhibits
N#C/C(=C\c1cc(O)c(O)c(I)c1)C(=S)NCc1cc(O)c(O)c(O)c1 [Compound 8],900,–,–,–,3500,–,–,trigger IRS1-ser phosphorylation; also recorded: detected,–
Oc1cc(CNC(=S)/C=C/c2cc(O)c(O)c(Br)c2)cc(O)c1O [Compound 9],1400,–,–,–,4300,–,–,trigger IRS1-ser phosphorylation; also recorded: detected,–
